Source: patent US9695155B2, “Herbicidal substituted pyrimidinyloxy benzene compounds” (E. I. DU PONT DE NEMOURS AND COMPANY, priority 2013, dated 2017)

Key:
windgrass = experiment: Test D preemergence; assay type: in vivo, Apera spica-venti
Outline: (§1)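 Values are 0–100 visual control ratings (0 none, 100 complete) given 7–21 days after application. Soil for preemergence was silt loam; postemergence plants stood 2–18 cm tall.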

blackgrass [1] = experiment: Test D preemergence; assay type: in vivo, Alopecurus myosuroides
Text: (§2) Seeds of plant species selected from bluegrass (annual bluegrass, Poa annua), blackgrass (Alopecurus myosuroides), canarygrass (littleseed canarygrass, Phalaris minor), chickweed (common chickweed, Stellaria media), galium (catchweed bedstraw, Galium aparine), bromegrass, downy (downy bromegrass, Bromus tectorum), field poppy (Papaver rhoeas), field violet (Viola arvensis), green foxtail (Setaria viridis), deadnettle (henbit deadnettle, Lamium amplexicaule), Italian ryegrass (Lolium multiflorum), kochia (Kochia scoparia), lambsquarters (Chenopodium album), oilseed rape (Brassica napus), pigweed (Amaranthus retroflexus), chamomile (scentless chamomile, Matricaria inodora), Russian thistle (Salsola kali), speedwell (bird's-eye speedwell, Veronica persica), spring barley (Hordeum vulgare), spring wheat (Triticum aestivum), wild buckwheat (Polygonum convolvulus), wild mustard (Sinapis arvensis), wild oat (Avena fatua), wild radish (Raphanus raphanistrum), windgrass (Apera spica-venti), winter barley (Hordeum vulgare), and winter wheat (Triticum aestivum) were planted into a silt loam soil and treated preemergence with test chemicals formulated in a non-phytotoxic solvent mixture which included a surfactant.
(§3) At the same time, these species were planted in pots containing Redi-Earth® planting medium (Scotts Company, 14111 Scottslawn Road, Marysville, Ohio 43041) comprising spaghnum peat moss, vermiculite, wetting agent and starter nutrients and treated with postemergence applications of the test chemicals formulated in the same manner. Plants ranged in height from 2 to 18 cm (1- to 4-leaf stage). Treated plants and controls were maintained in a controlled growth environment for 7 to 21 days after which time all species were compared to controls and visually evaluated. Plant response ratings, summarized in Table D, are based on a scale of 0 to 100 where 0 is no effect and 100 is complete control. A dash (-) response means no test result.

pigweed = experiment: Test D postemergence; assay type: in vivo, Amaranthus retroflexus
Text: as §2, §3

bluegrass = experiment: Test D preemergence; assay type: in vivo, Poa annua
Outline: as §1

winter barley = experiment: Test D preemergence; assay type: in vivo, Hordeum vulgare
Text: as §2, §3

spring barley = experiment: Test D preemergence; assay type: in vivo, Hordeum vulgare
Text: as §2, §3

blackgrass [2] = experiment: Test D postemergence; assay type: in vivo, Alopecurus myosuroides
Outline: as §1

speedwell = experiment: Test D preemergence; assay type: in vivo, Veronica persica
Outline: as §1

chickweed = experiment: Test D postemergence; assay type: in vivo, Stellaria media
Text: as §2, §3

wild buckwheat = experiment: Test D preemergence; assay type: in vivo, Polygonum convolvulus
Outline: as §1

canarygrass = experiment: Test D preemergence; assay type: in vivo, Phalaris minor
Outline: as §1

[3] = 16 g ai/ha, scale 0 (no effect) to 100 (complete control)
[4] = 31 g ai/ha, scale 0 (no effect) to 100 (complete control)
[5] = 31 g ai/ha, scale 0 to 100 (0 no effect, 100 complete control)
[6] = 62 g ai/ha, scale 0 to 100 (0 no effect, 100 complete control)
[7] = 125 g ai/ha, scale 0 to 100 (0 no effect, 100 complete control)
[8] = 250 g ai/ha, scale 0 to 100 (0 no effect, 100 complete control)

Clc1cnc(Oc2ccccc2-n2cc(Cl)cn2)nc1 [Compound 3]
Plant response rating, Windgrass (windgrass; [3]): 0
Plant response rating, Windgrass (windgrass; [4]): 0
Plant response rating, Windgrass (windgrass; 62 g ai/ha, scale 0-100): 0
Plant response rating, Windgrass (windgrass; 125 g ai/ha, scale 0-100): 10
Plant response rating, Windgrass (windgrass; 250 g ai/ha, scale 0-100): 20
Plant response rating, Blackgrass (blackgrass [1]; [3]): 0
Plant response rating, Blackgrass (blackgrass [1]; 31 g ai/ha, scale 0-100): 0
Plant response rating, Blackgrass (blackgrass [1]; 62 g ai/ha, scale 0-100): 0
Plant response rating, Blackgrass (blackgrass [1]; 125 g ai/ha, scale 0-100): 0
Plant response rating, Blackgrass (blackgrass [1]; 250 g ai/ha, scale 0-100): 0
Plant response rating, Pigweed (pigweed; 16 g ai/ha, scale 0-100): 70
Plant response rating, Pigweed (pigweed; [5]): 70
Plant response rating, Pigweed (pigweed; [6]): 70
Plant response rating, Pigweed (pigweed; [7]): 70
Plant response rating, Pigweed (pigweed; [8]): 90
Plant response rating, Bluegrass (bluegrass; [3]): 0
Plant response rating, Bluegrass (bluegrass; 31 g ai/ha, scale 0-100): 0
Plant response rating, Bluegrass (bluegrass; 62 g ai/ha, scale 0-100): 0
Plant response rating, Bluegrass (bluegrass; 125 g ai/ha, scale 0-100): 20
Plant response rating, Bluegrass (bluegrass; 250 g ai/ha, scale 0-100): 40
Plant response rating, Barley, Winter (winter barley; [3]): 0
Plant response rating, Barley, Winter (winter barley; 31 g ai/ha, scale 0-100): 0
Plant response rating, Barley, Winter (winter barley; 62 g ai/ha, scale 0-100): 0
Plant response rating, Barley, Winter (winter barley; 125 g ai/ha, scale 0-100): 10
Plant response rating, Barley, Winter (winter barley; 250 g ai/ha, scale 0-100): 20
Plant response rating, Barley, Spring (spring barley; [3]): 0
Plant response rating, Barley, Spring (spring barley; 31 g ai/ha, scale 0-100): 0
Plant response rating, Barley, Spring (spring barley; 62 g ai/ha, scale 0-100): 0
Plant response rating, Barley, Spring (spring barley; 125 g ai/ha, scale 0-100): 0
Plant response rating, Barley, Spring (spring barley; 250 g ai/ha, scale 0-100): 0
Plant response rating, Blackgrass (blackgrass [2]; Postemergence, 62 g ai/ha, scale 0 to 100 (0 no effect, 100 complete control)): 0
Plant response rating, Blackgrass (blackgrass [2]; Postemergence, 31 g ai/ha, scale 0 to 100 (0 no effect, 100 complete control)): 0
Plant response rating, Blackgrass (blackgrass [2]; Postemergence, 125 g ai/ha, scale 0 to 100 (0 no effect, 100 complete control)): 0
Plant response rating, Blackgrass (blackgrass [2]; Postemergence, 250 g ai/ha, scale 0 to 100 (0 no effect, 100 complete control)): 10
Plant response rating, Blackgrass (blackgrass [2]; postemergence, 16 g ai/ha, scale 0 to 100, 0 no effect, 100 complete control): 70
Plant response rating, Speedwell (speedwell; [3]): 100
Plant response rating, Speedwell (speedwell; [4]): 100
Plant response rating, Speedwell (speedwell; 62 g ai/ha, scale 0-100): 100
Plant response rating, Speedwell (speedwell; 125 g ai/ha, scale 0-100): 100
Plant response rating, Speedwell (speedwell; 250 g ai/ha, scale 0-100): 100
Plant response rating, Chickweed (chickweed; 16 g ai/ha, scale 0-100): 40
Plant response rating, Chickweed (chickweed; [5]): 0
Plant response rating, Chickweed (chickweed; [6]): 25
Plant response rating, Chickweed (chickweed; [7]): 30
Plant response rating, Chickweed (chickweed; [8]): 40
Plant response rating, Buckwheat, Wild (wild buckwheat; [3]): 0
Plant response rating, Buckwheat, Wild (wild buckwheat; 31 g ai/ha, scale 0-100): 0
Plant response rating, Buckwheat, Wild (wild buckwheat; 62 g ai/ha, scale 0-100): 0
Plant response rating, Buckwheat, Wild (wild buckwheat; 125 g ai/ha, scale 0-100): 60
Plant response rating, Buckwheat, Wild (wild buckwheat; 250 g ai/ha, scale 0-100): 100
Plant response rating, Canarygrass (canarygrass; [3]): 0
Plant response rating, Canarygrass (canarygrass; 31 g ai/ha, scale 0-100): 0
Plant response rating, Canarygrass (canarygrass; 62 g ai/ha, scale 0-100): 0
Plant response rating, Canarygrass (canarygrass; 125 g ai/ha, scale 0-100): 0
Plant response rating, Canarygrass (canarygrass; 250 g ai/ha, scale 0-100): 25
